Earlier results as cited in patent US7833524B2 (priority 2005, dated 2010).

Target: LC/A (Clostridium botulinum, UniProt P0DPI0)
Sequence (P0DPI0 2-448 limits assumed): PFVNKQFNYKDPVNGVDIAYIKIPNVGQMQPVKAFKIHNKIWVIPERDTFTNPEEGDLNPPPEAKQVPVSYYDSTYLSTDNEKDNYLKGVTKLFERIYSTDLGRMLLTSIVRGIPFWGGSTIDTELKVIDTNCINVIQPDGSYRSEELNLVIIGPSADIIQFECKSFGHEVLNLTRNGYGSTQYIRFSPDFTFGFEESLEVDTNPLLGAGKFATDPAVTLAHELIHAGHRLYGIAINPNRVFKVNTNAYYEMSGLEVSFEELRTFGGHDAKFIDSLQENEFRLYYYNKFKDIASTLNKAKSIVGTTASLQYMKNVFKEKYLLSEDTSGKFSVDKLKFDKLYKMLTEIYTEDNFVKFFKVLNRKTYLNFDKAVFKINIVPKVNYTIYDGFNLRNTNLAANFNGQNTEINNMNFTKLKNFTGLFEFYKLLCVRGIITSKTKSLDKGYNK

| SMILES | Concentration range that inhibits LC/A |
| --- | --- |
| C[C@H](CS)C(=O)N1CCC[C@H]1C(=O)O [captopril] | mM concentrations |
| CCOC(=O)[C@H](CCc1ccccc1)N[C@@H](C)C(=O)N1CCC[C@H]1C(=O)O [enalapril] | mM concentrations |
